How the values were obtained:
Type in all cases: binding
E. coli dUTPase (EcDUT) [1] = molecular target: T1, E. coli dUTPase (EcDUT) (Escherichia coli, UniProt P06968, Q94H/F146W, form not given); experiment: tryptophan fluorescence; acrylamide quenching; details: 3 µM enzyme, 100 µM dUPNPP, 5 mM MgCl2, pH 7.5, 293 K; active site; quenching with 4 µM enzyme, 1.5 mM dUPNPP
T1 construct: gene dut; expressed in E. coli BL21(DE3) Rosetta; homotrimer; C-terminal residues R150, Q151

E. coli dUTPase (EcDUT) [2] = molecular target: T2, E. coli dUTPase (EcDUT) (Escherichia coli, UniProt P06968, Q94R/F146W, form not given); experiment: tryptophan fluorescence; details: 3 µM enzyme, 100 µM dUPNPP, 5 mM MgCl2, pH 7.5, 293 K; active site
T2 construct: gene dut; expressed in E. coli BL21(DE3) Rosetta; homotrimer; C-terminal residues R150, Q151

E. coli dUTPase (EcDUT) [3] = molecular target: T3, E. coli dUTPase (EcDUT) (Escherichia coli, UniProt P06968, Q94H, form not given); experiment: X-ray crystallography, […] Å; details: 5 mM dUPNPP, Mg2+, pH 7.5; active site; non-hydrolysable substrate analogue
T3 construct: gene dut; expressed in E. coli BL21(DE3) Rosetta; homotrimer; C-terminal residues R150, Q151

E. coli dUTPase (EcDUT) [4] = molecular target: T4, E. coli dUTPase (EcDUT) (Escherichia coli, UniProt P06968, F146W, form not given); experiment: tryptophan fluorescence; acrylamide quenching; details: 3 µM enzyme, 100 µM dUPNPP, 5 mM MgCl2, pH 7.5, 293 K; active site; quenching with 4 µM enzyme, 1.5 mM dUPNPP
T4 construct: gene dut; expressed in E. coli BL21(DE3) Rosetta; homotrimer; C-terminal residues R150, Q151

For O=c1ccn([C@H]2C[C@H](O)[C@@H](COP(=O)(O)NP(=O)(O)OP(=O)(O)O)O2)c(=O)[nH]1 [dUPNPP], the “tryptophan fluorescence; acrylamide quenching” value (E. coli dUTPase (EcDUT) [1]) was “allowed us to follow substrate analogue and Stl binding of the three arm-tryptophan mutant enzyme”, the tryptophan fluorescence (E. coli dUTPase (EcDUT) [2]) was “allowed us to follow substrate analogue and Stl binding of the three arm-tryptophan mutant enzyme” and the “X-ray crystallography, 1.8 Å” value (E. coli dUTPase (EcDUT) [3]) was “we crystallized the EcDUT^Q93H dUTPase mutant in the presence of the non-hydrolysable substrate analogue dUPNPP”. For the same molecule, the “tryptophan fluorescence; acrylamide quenching” value (E. coli dUTPase (EcDUT) [4]) was “allowed us to follow substrate analogue and Stl binding of the three arm-tryptophan mutant enzyme”.

Reference: article PMC6627510, “The Role of a Key Amino Acid Position in Species-Specific Proteinaceous dUTPase Inhibition” (Biomolecules, 2019)
